Experimental data published in PubChem BioAssay (NCI).
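Assay format: 96-well plates, 48-hour exposure. Abbreviation: GI50, concentration required for 50% inhibition of growth. TGI: concentration producing complete growth inhibition.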

Experiments:
Test in all cases: growth of human tumour cells (NCI), 48 h
MCF7 breast = test system: MCF7 breast
UACC-257 melanoma = test system: UACC-257 melanoma
IGROV1 ovarian = test system: IGROV1 ovarian
DU-145 prostate = test system: DU-145 prostate
NCI/ADR-RES ovarian = test system: NCI/ADR-RES ovarian
MALME-3M melanoma = test system: MALME-3M melanoma
HL-60(TB) leukemia = test system: HL-60(TB) leukemia
BT-549 breast = test system: BT-549 breast
SNB-75 CNS = test system: SNB-75 CNS
A549 NSCLC = test system: A549 NSCLC
OVCAR-5 ovarian = test system: OVCAR-5 ovarian
TK-10 renal = test system: TK-10 renal
NCI-H460 lung = test system: NCI-H460 lung
MDA-MB-231 breast = test system: MDA-MB-231 breast
HS 578T breast = test system: HS 578T breast
M14 melanoma = test system: M14 melanoma
EKVX NSCLC = test system: EKVX NSCLC
KM12 colon = test system: KM12 colon
RPMI-8226 leukemia = test system: RPMI-8226 leukemia
SK-MEL-5 melanoma = test system: SK-MEL-5 melanoma
HCT-15 colon = test system: HCT-15 colon
SF-295 CNS = test system: SF-295 CNS
ACHN renal = test system: ACHN renal
HOP-62 NSCLC = test system: HOP-62 NSCLC
SK-MEL-2 melanoma = test system: SK-MEL-2 melanoma
SK-OV-3 ovarian = test system: SK-OV-3 ovarian
SNB-19 CNS = test system: SNB-19 CNS
MOLT-4 leukemia = test system: MOLT-4 leukemia
UACC-62 melanoma = test system: UACC-62 melanoma
T-47D breast = test system: T-47D breast
A498 renal = test system: A498 renal
HCT-116 colon = test system: HCT-116 colon
CAKI-1 renal = test system: CAKI-1 renal
786-0 renal = test system: 786-0 renal
SK-MEL-28 melanoma = test system: SK-MEL-28 melanoma
OVCAR-8 ovarian = test system: OVCAR-8 ovarian
RXF 393 renal = test system: RXF 393 renal
NCI-H23 lung = test system: NCI-H23 lung
SN12C renal = test system: SN12C renal
U251 CNS = test system: U251 CNS
SF-539 CNS = test system: SF-539 CNS
HCC-2998 colon = test system: HCC-2998 colon
HT29 colon = test system: HT29 colon
MDA-MB-435 = test system: MDA-MB-435
PC-3 prostate = test system: PC-3 prostate
OVCAR-4 ovarian = test system: OVCAR-4 ovarian
SR leukemia = test system: SR leukemia
OVCAR-3 ovarian = test system: OVCAR-3 ovarian
K-562 leukemia = test system: K-562 leukemia
SF-268 CNS = test system: SF-268 CNS
COLO 205 colon = test system: COLO 205 colon
LOX IMVI melanoma = test system: LOX IMVI melanoma
UO-31 renal = test system: UO-31 renal
NCI-H226 lung = test system: NCI-H226 lung
SW-620 colon = test system: SW-620 colon

CC(=O)Oc1ccc(Nc2c3ccccc3nc3ccccc23)cc1
GI50 (MCF7 breast): 0.476 µM | TGI (MCF7 breast): 10.1 µM | GI50 (UACC-257 melanoma): 1.51 µM | TGI (UACC-257 melanoma): 4.31 µM | GI50 (IGROV1 ovarian): 1.15 µM | TGI (IGROV1 ovarian): 6.98 µM | GI50 (DU-145 prostate): 0.536 µM | TGI (DU-145 prostate): 3 µM | GI50 (NCI/ADR-RES ovarian): 2.25 µM | TGI (NCI/ADR-RES ovarian): 12.1 µM | GI50 (MALME-3M melanoma): 1.31 µM | TGI (MALME-3M melanoma): 5.35 µM | GI50 (HL-60(TB) leukemia): 0.705 µM | TGI (HL-60(TB) leukemia): 6.14 µM | GI50 (BT-549 breast): 2.77 µM | TGI (BT-549 breast): 13.5 µM | GI50 (SNB-75 CNS): 0.544 µM | TGI (SNB-75 CNS): 5.08 µM | GI50 (A549 NSCLC): 0.365 µM | TGI (A549 NSCLC): 1.87 µM | GI50 (OVCAR-5 ovarian): 2.08 µM | TGI (OVCAR-5 ovarian): 6.75 µM | GI50 (TK-10 renal): 1.68 µM | TGI (TK-10 renal): 6.22 µM | GI50 (NCI-H460 lung): 0.295 µM | TGI (NCI-H460 lung): 1.3 µM | GI50 (MDA-MB-231 breast): 1.7 µM | TGI (MDA-MB-231 breast): 6.23 µM | GI50 (HS 578T breast): 0.435 µM | TGI (HS 578T breast): 3.19 µM | GI50 (M14 melanoma): 1.46 µM | TGI (M14 melanoma): 3.7 µM | GI50 (EKVX NSCLC): 3.05 µM | TGI (EKVX NSCLC): 25.3 µM | GI50 (KM12 colon): 1.88 µM | TGI (KM12 colon): 10.5 µM | GI50 (RPMI-8226 leukemia): 2.25 µM | TGI (RPMI-8226 leukemia): 23.7 µM | GI50 (SK-MEL-5 melanoma): 0.984 µM | TGI (SK-MEL-5 melanoma): 2.15 µM | GI50 (HCT-15 colon): 1.13 µM | TGI (HCT-15 colon): 3.4 µM | GI50 (SF-295 CNS): 0.914 µM | TGI (SF-295 CNS): 7.94 µM | GI50 (ACHN renal): 0.382 µM | TGI (ACHN renal): 2.02 µM | GI50 (HOP-62 NSCLC): 0.971 µM | TGI (HOP-62 NSCLC): 3.48 µM | GI50 (SK-MEL-2 melanoma): 1.8 µM | TGI (SK-MEL-2 melanoma): 3.79 µM | GI50 (SK-OV-3 ovarian): 1.47 µM | TGI (SK-OV-3 ovarian): 5.91 µM | GI50 (SNB-19 CNS): 1.86 µM | TGI (SNB-19 CNS): 11.9 µM | GI50 (MOLT-4 leukemia): 0.321 µM | TGI (MOLT-4 leukemia): > 100 µM | GI50 (UACC-62 melanoma): 1.1 µM | TGI (UACC-62 melanoma): 2.61 µM | GI50 (T-47D breast): 1.72 µM | TGI (T-47D breast): 7.23 µM | GI50 (A498 renal): 0.322 µM | TGI (A498 renal): 1.88 µM | GI50 (HCT-116 colon): 0.613 µM | TGI (HCT-116 colon): 4.11 µM | GI50 (CAKI-1 renal): 1.21 µM | TGI (CAKI-1 renal): 12.7 µM | GI50 (786-0 renal): 1.89 µM | TGI (786-0 renal): 6.4 µM | GI50 (SK-MEL-28 melanoma): 1.58 µM | TGI (SK-MEL-28 melanoma): 3.92 µM | GI50 (OVCAR-8 ovarian): 1.07 µM | TGI (OVCAR-8 ovarian): 4.14 µM | GI50 (RXF 393 renal): 1.08 µM | TGI (RXF 393 renal): 2.93 µM | GI50 (NCI-H23 lung): 1.17 µM | TGI (NCI-H23 lung): 2.98 µM | GI50 (SN12C renal): 1.42 µM | TGI (SN12C renal): 10.3 µM | GI50 (U251 CNS): 1.55 µM | TGI (U251 CNS): 8.85 µM | GI50 (SF-539 CNS): 1.63 µM | TGI (SF-539 CNS): 6.24 µM | GI50 (HCC-2998 colon): 1.97 µM | TGI (HCC-2998 colon): 14.3 µM | GI50 (HT29 colon): 1.1 µM | TGI (HT29 colon): 3.53 µM | GI50 (MDA-MB-435): 2.17 µM | TGI (MDA-MB-435): 8.16 µM | GI50 (PC-3 prostate): 2.12 µM | TGI (PC-3 prostate): 13.3 µM | GI50 (OVCAR-4 ovarian): 1.74 µM | TGI (OVCAR-4 ovarian): 5.93 µM | GI50 (SR leukemia): 0.355 µM | TGI (SR leukemia): > 100 µM | GI50 (OVCAR-3 ovarian): 2.14 µM | TGI (OVCAR-3 ovarian): 6.48 µM | GI50 (K-562 leukemia): 1.45 µM | TGI (K-562 leukemia): > 100 µM | GI50 (SF-268 CNS): 1.86 µM | TGI (SF-268 CNS): 12.4 µM | GI50 (COLO 205 colon): 0.861 µM | TGI (COLO 205 colon): 2.33 µM | GI50 (LOX IMVI melanoma): 0.736 µM | TGI (LOX IMVI melanoma): 2.03 µM | GI50 (UO-31 renal): 0.693 µM | TGI (UO-31 renal): 2.59 µM | GI50 (NCI-H226 lung): 0.675 µM | TGI (NCI-H226 lung): 3.08 µM | GI50 (SW-620 colon): 0.747 µM | TGI (SW-620 colon): 2.58 µM
